Laboratory results: patent US20260193293A1, “PEPTIDES CAPABLE OF INHIBITING PROTEIN-PROTEIN INTERACTIONS AT GABAB1A SUBUNIT AND USES THEREOF” (UNIVERSITY OF COPENHAGEN, priority 2022, published 2026)
Where two headings read alike, the source gives them in different places. Non-standard residues stand in square brackets, D forms with d. Residues, ends and D or L forms follow the SMILES beside them. 3Pal = N[C@@H](Cc1cccnc1)C(=O)O; NMeE = CN[C@@H](CCC(=O)O)C(=O)O; NMeV = CN[C@H](C(=O)O)C(C)C; Sar = CNCC(=O)O

Target: Sushi domains (SD1/2) protein
Assay: Fluorescence polarization (FP) competition assay with AJAP-1probe, calculated Ki
Type: binding
Summary of the method: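 Ki values were derived from IC50s (sigmoidal fits, ≥ triplicate), with probe Kd obtained by saturation titration of SD1/2. Peptides displaced a 25 nM TAMRA-labelled probe; polarization read at 530/580 nm in 1% BSA-containing PBS, pH 7.4, room temperature.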

[1] = Table 10, deep mutational scanning validation variants of APPWT, read-out: Ki (nM) mean ± SEM
[2] = Table 14, CPPs tagged peptides, read-out: Ki (nM) mean ± SEM
[3] = Table 9, Ala-, D-amino acids and N-methylation scans of PIANPWT, read-out: Ki (nM) mean ± SEM
[4] = Table 8, Ala-, D-amino acids and N-methylation scans of AJAP-1WT, read-out: Ki (nM) mean ± SEM
[5] = Table 13, peptides for affinity maturation, read-out: Ki (nM) mean ± SEM
[6] = Table 11, deep mutational scanning validation variants of AJAP-1WT, read-out: Ki (nM) mean ± SEM

## CC(=O)N[C@@H](CCC(=O)O)C(=O)N[C@@H](CC(=O)O)C(=O)N[C@@H](CC(=O)O)C(=O)N[C@@H](CO)C(=O)N[C@@H](Cc1ccccc1)C(=O)N[C@H](C(=O)N[C@@H](Cc1c[nH]c2ccccc12)C(=O)N[C@@H](Cc1c[nH]c2ccccc12)C(=O)NCC(=O)NCC(=O)N[C@@H](C)C(=O)N[C@@H](CC(=O)O)C(=O)N[C@H](C(=O)N[C@@H](CC(=O)O)C(N)=O)[C@@H](C)O)C(C)C (Ac-EDDSFVWWGGADTD-NH2)
[1]
  Ki: 142 ± 6 nM

## CC(=O)N[C@@H](CCC(=O)O)C(=O)N[C@@H](CCC(=O)O)C(=O)N[C@@H](CC(=O)O)C(=O)N[C@@H](CC(=O)O)C(=O)N[C@@H](CO)C(=O)N[C@@H](CC(=O)O)C(=O)N[C@H](C(=O)N[C@@H](Cc1c[nH]c2ccccc12)C(=O)N[C@@H](Cc1c[nH]c2ccccc12)C(=O)NCC(=O)NCC(=O)N[C@@H](C)C(=O)N[C@@H](CC(=O)O)C(=O)N[C@H](C(=O)N[C@@H](CC(=O)O)C(=O)N[C@@H](Cc1ccc(O)cc1)C(=O)N[C@@H](C)C(=O)N[C@@H](CC(=O)O)C(=O)NCC(N)=O)[C@@H](C)O)C(C)C (Ac-EEDDSDVWWGGADTDYADG-NH2)
Table 4, truncation and elongation scans of APP epitope, read-out: Ki (nM) mean ± SEM
  Ki: 343 ± 17 nM

## CC[C@H](C)[C@H](NC(=O)[C@H](Cc1c[nH]c2ccccc12)NC(=O)[C@H](CC(=O)O)NC(=O)[C@H](CC(=O)O)NC(=O)[C@H](CC(=O)O)NC(=O)[C@H](CCC(=O)O)NC(=O)[C@H](CCCNC(=N)N)NC(=O)[C@H](CCCNC(=N)N)NC(=O)[C@H](CCCNC(=N)N)NC(=O)[C@H](CCCNC(=N)N)NC(=O)[C@H](CCCNC(=N)N)NC(=O)[C@H](CCCNC(=N)N)NC(=O)[C@H](CCCNC(=N)N)NC(C)=O)C(=O)N[C@@H](CC(=O)O)C(=O)N[C@@H](Cc1c[nH]c2ccccc12)C(=O)N[C@@H](Cc1ccc(O)cc1)C(=O)N[C@@H](CC(=O)O)C(=O)N[C@@H](CO)C(=O)N[C@@H](CC(=O)O)C(=O)N[C@@H](CC(=O)O)C(=O)N[C@@H](CC(=O)O)C(N)=O (Ac-RRRRRRREDDDWIDWYDSDDD-NH2)
[2]
  Ki: 89.1 ± 3 nM

## CC[C@H](C)[C@H](NC(=O)[C@H](C)NC(=O)[C@H](Cc1c[nH]c2ccccc12)NC(=O)[C@@H]1CCCN1C(C)=O)C(=O)N[C@H](C(=O)N[C@@H](Cc1c[nH]c2ccccc12)C(=O)NCC(=O)N1CCC[C@H]1C(=O)N[C@H](C(=O)N[C@H](C(=O)N[C@@H](CO)C(=O)N[C@@H](CCCNC(=N)N)C(=O)N[C@@H](CCC(=O)O)C(=O)N[C@@H](C)C(N)=O)C(C)C)[C@@H](C)O)C(C)C (Ac-PWAIVWGPTVSREA-NH2)
[3]
  Ki: 572 ± 9 nM

## CC[C@H](C)[C@H](NC(=O)[C@H](Cc1ccccc1)NC(=O)[C@H](CCC(=O)O)N(C)C(=O)[C@@H](NC(=O)[C@H](CCC(=O)O)NC(C)=O)[C@@H](C)O)C(=O)N[C@@H](C)C(=O)N[C@@H](Cc1c[nH]c2ccccc12)C(=O)NCC(=O)N1CCC[C@H]1C(=O)N[C@H](C(=O)NCC(=O)N[C@@H](CC(=O)O)C(=O)N[C@@H](CCC(=O)O)C(=O)N[C@@H](CC(=O)O)C(N)=O)[C@@H](C)O [ET(N-Me-E)FIAWGPTGDED] (Ac-ET[NMeE]FIAWGPTGDED-NH2)
[4]
  Ki: 159 ± 3 nM

## CC[C@H](C)[C@H](NC(=O)[C@H](Cc1ccccc1)NC(=O)[C@H](CCC(=O)O)NC(=O)[C@@H](NC(=O)[C@H](CCC(=O)O)NC(C)=O)[C@@H](C)O)C(=O)N[C@@H](C)C(=O)N[C@@H](Cc1c[nH]c2ccccc12)C(=O)NCC(=O)NCC(=O)N[C@@H](C)C(=O)N[C@@H](CC(=O)O)C(=O)N[C@H](C(=O)N[C@@H](CC(=O)O)C(N)=O)[C@@H](C)O [Peptide Y] (Ac-ETEFIAWGGADTD-NH2)
Table 1, affinity maturation, mean ± SEM, n ≥ 3, read-out: Ki
  Ki: 354 ± 9 nM
[5]
  Ki: 345 ± 9 nM

## CC[C@H](C)[C@H](NC(=O)[C@H](Cc1ccccc1)NC(=O)[C@H](CCC(=O)O)NC(=O)[C@@H](NC(=O)[C@H](C)NC(C)=O)[C@@H](C)O)C(=O)N[C@@H](C)C(=O)N[C@@H](Cc1c[nH]c2ccccc12)C(=O)NCC(=O)N1CCC[C@H]1C(=O)N[C@H](C(=O)NCC(=O)N[C@@H](CC(=O)O)C(=O)N[C@@H](CCC(=O)O)C(=O)N[C@@H](CC(=O)O)C(N)=O)[C@@H](C)O [ATEFIAWGPTGDED] (Ac-ATEFIAWGPTGDED-NH2)
[4]
  Ki: 53 ± 2 nM

## CC[C@H](C)[C@H](NC(=O)[C@H](C)NC(=O)[C@H](Cc1c[nH]c2ccccc12)NC(=O)[C@@H]1CCCN1C(C)=O)C(=O)N[C@H](C(=O)N[C@@H](Cc1c[nH]c2ccccc12)C(=O)NCC(=O)N[C@@H](C)C(=O)N[C@H](C(=O)N[C@H](C(=O)N[C@@H](CO)C(=O)N[C@@H](CCCNC(=N)N)C(=O)N[C@@H](CCC(=O)O)C(=O)N[C@@H](CC(=O)O)C(N)=O)C(C)C)[C@@H](C)O)C(C)C [PWAIVWGATVSRED] (Ac-PWAIVWGATVSRED-NH2)
[3]
  Ki: 1500 ± 34 nM

## CC[C@H](C)[C@H](NC(=O)[C@H](Cc1c[nH]c2ccccc12)NC(=O)[C@H](CC(=O)O)NC(=O)[C@H](CC(=O)O)NC(=O)[C@H](CC(=O)O)NC(=O)[C@H](CCC(=O)O)NC(=O)[C@H](CCCNC(=N)N)NC(=O)[C@H](CCCNC(=N)N)NC(=O)[C@H](CCCNC(=N)N)NC(=O)[C@H](CCCNC(=N)N)NC(C)=O)C(=O)N[C@@H](CC(=O)O)C(=O)N[C@@H](Cc1c[nH]c2ccccc12)C(=O)NCC(=O)N1CCC[C@H]1C(=O)N[C@H](C(=O)N[C@@H](CO)C(=O)N[C@@H](CC(=O)O)C(=O)N[C@@H](CC(=O)O)C(=O)N[C@@H](CC(=O)O)C(N)=O)[C@@H](C)O [Peptide 4R-17] (Ac-RRRREDDDWIDWGPTSDDD-NH2)
[2]
  Ki: 15 ± 1 nM

## CC(=O)N[C@@H](CCC(=O)O)C(=O)N[C@@H](CC(=O)O)C(=O)N[C@@H](CC(=O)O)C(=O)N[C@@H](CO)C(=O)N[C@@H](CC(=O)O)C(=O)N[C@H](C(=O)N[C@@H](Cc1c[nH]c2ccccc12)C(=O)N[C@@H](Cc1c[nH]c2ccccc12)C(=O)N[C@@H](Cc1ccc(O)cc1)C(=O)NCC(=O)N(C)CC(=O)N[C@@H](C)C(=O)N[C@@H](CC(=O)O)C(=O)N[C@H](C(=O)N[C@@H](CC(=O)O)C(N)=O)[C@@H](C)O)C(C)C (Ac-EDDSDVWWYG[Sar]ADTD-NH2)
[5]
  Ki: 164 ± 2 nM

## CC(=O)N[C@@H](CCC(=O)O)C(=O)N[C@@H](CC(=O)O)C(=O)N[C@@H](CC(=O)O)C(=O)N[C@@H](CO)C(=O)N[C@@H](CC(=O)O)C(=O)N[C@H](C(=O)N[C@@H](Cc1c[nH]c2ccccc12)C(=O)N[C@@H](Cc1c[nH]c2ccccc12)C(=O)N[C@@H](Cc1ccc(O)cc1)C(=O)N(C)CC(=O)N[C@H](C(=O)NCC(=O)N[C@@H](CC(=O)O)C(=O)N[C@@H](CCC(=O)O)C(=O)N[C@@H](CC(=O)O)C(N)=O)[C@@H](C)O)C(C)C (Ac-EDDSDVWWY[Sar]TGDED-NH2)
[5]
  Ki: 142 ± 3 nM

## CC[C@H](C)[C@H](NC(=O)[C@H](Cc1ccc(O)cc1)NC(=O)[C@H](CCC(=O)O)NC(=O)[C@@H](NC(=O)[C@H](CCC(=O)O)NC(C)=O)[C@@H](C)O)C(=O)N[C@@H](C)C(=O)N[C@@H](Cc1c[nH]c2ccccc12)C(=O)NCC(=O)N1CCC[C@H]1C(=O)N[C@H](C(=O)NCC(=O)N[C@@H](CC(=O)O)C(=O)N[C@@H](CCC(=O)O)C(=O)N[C@@H](CC(=O)O)C(N)=O)[C@@H](C)O [ETEYIAWGPTGDED, Ac-ETEYIAWGPTGDED-NH2] (Ac-ETEYIAWGPTGDED-NH2)
[6]
  Ki: 18 ± 1 nM

## CC(=O)N[C@@H](CCC(=O)O)C(=O)N[C@@H](CC(=O)O)C(=O)N[C@@H](CC(=O)O)C(=O)N[C@@H](CO)C(=O)N[C@@H](CC(=O)O)C(=O)N[C@H](C(=O)N[C@@H](Cc1c[nH]c2ccccc12)C(=O)N[C@@H](Cc1c[nH]c2ccccc12)C(=O)NCC(=O)NCC(=O)N[C@@H](CO)C(=O)N[C@@H](CC(=O)O)C(=O)N[C@H](C(=O)N[C@@H](CC(=O)O)C(N)=O)[C@@H](C)O)C(C)C (Ac-EDDSDVWWGGSDTD-NH2)
[1]
  Ki: 204 ± 4 nM

## CC(=O)N[C@@H](CCC(=O)O)C(=O)N[C@@H](CC(=O)O)C(=O)N[C@@H](CC(=O)O)C(=O)N[C@@H](CO)C(=O)N[C@@H](Cc1cccnc1)C(=O)N[C@H](C(=O)N[C@@H](Cc1c[nH]c2ccccc12)C(=O)N[C@@H](Cc1c[nH]c2ccccc12)C(=O)NCC(=O)NCC(=O)N[C@@H](C)C(=O)N[C@@H](CC(=O)O)C(=O)N[C@H](C(=O)N[C@@H](CC(=O)O)C(N)=O)[C@@H](C)O)C(C)C (Ac-EDDS[3Pal]VWWGGADTD-NH2)
Table 16, ncAAs incorporated peptides, read-out: Ki (nM) mean ± SEM
  Ki: 373 ± 7 nM

## CC[C@H](C)[C@H](NC(=O)[C@H](C)NC(=O)[C@H](Cc1c[nH]c2ccccc12)NC(=O)[C@@H]1CCCN1C(C)=O)C(=O)N[C@H](C(=O)N[C@@H](Cc1c[nH]c2ccccc12)C(=O)NCC(=O)N1CCC[C@H]1C(=O)N[C@H](C(=O)N(C)[C@H](C(=O)N[C@@H](CO)C(=O)N[C@@H](CCCNC(=N)N)C(=O)N[C@@H](CCC(=O)O)C(=O)N[C@@H](CC(=O)O)C(N)=O)C(C)C)[C@@H](C)O)C(C)C (Ac-PWAIVWGPT[NMeV]SRED-NH2)
[3]
  Ki: 1780 ± 87 nM

## CC[C@H](C)[C@H](NC(=O)[C@H](Cc1ccccc1)NC(=O)[C@H](CCC(=O)O)NC(=O)[C@@H](NC(=O)[C@H](CCC(=O)O)NC(C)=O)[C@@H](C)O)C(=O)N[C@@H](C)C(=O)N[C@@H](Cc1c[nH]c2ccccc12)C(=O)NCC(=O)N1CCC[C@H]1C(=O)N[C@H](C(=O)NCC(=O)N[C@@H](CC(=O)O)C(=O)N[C@H](C(=O)N[C@@H](CC(=O)O)C(N)=O)C(C)C)[C@@H](C)O
[6]
  Ki: 39 ± 1 nM

## CC[C@H](C)[C@H](NC(=O)[C@H](C)NC(=O)[C@H](Cc1c[nH]cn1)NC(=O)[C@@H]1CCCN1C(C)=O)C(=O)N[C@H](C(=O)N[C@@H](Cc1c[nH]c2ccccc12)C(=O)NCC(=O)N1CCC[C@H]1C(=O)N[C@H](C(=O)N[C@H](C(=O)N[C@@H](CO)C(=O)N[C@@H](CCCNC(=N)N)C(=O)N[C@@H](CCC(=O)O)C(=O)N[C@@H](CC(=O)O)C(N)=O)C(C)C)[C@@H](C)O)C(C)C [PHAIVWGPTVSRED] (Ac-PHAIVWGPTVSRED-NH2)
Table 12, deep mutational scanning validation variants of PIANPWT, read-out: Ki (nM) mean ± SEM
  Ki: 1500 ± 50 nM
